Patent US8268779B2, “Pharmaceutical composition comprising oxyntomodulin derivatives and a method for reducing body weight using the composition” (Merck Sharp & Dohme Corp., priority 2006, dated 2012)

Key:
[1] = system: islets from wild type C57BL/6 mice; test: Glucose-stimulated insulin secretion (GSIS) in wild type murine islets; assay type: cell-based, mouse
Procedure: (§4) To measure GSIS, islets were first preincubated for 30 minutes in the Krebs-Ringer bicarbonate (KRB) buffer with 2 mM glucose (in Petri dishes). […] Insulin was measured in aliquots of the incubation buffer by ELISA with a commercial kit (ALPCO Diagnostics, Windham, N.H.).

[2] = system: islets from GCG-R−/− mice; test: GSIS in GCG-R-/- islets; conditions: 10 nM peptide
Procedure: as §4

[3] = system: islets from GLP-1R−/− mice; test: GSIS in GLP-1R-/- islets; assay type: cell-based, mouse; conditions: 10 nM peptide, 16 mmol/l glucose
Procedure: as §4

[4] = system: Male C57BL/6N mice; test: Acute effects on food intake and body weight in lean mice; assay type: in vivo, mouse; conditions: for overnight body weight gain in mice fed ad libitum: equimolar/similar doses; for overnight food intake and body weight gain in lean mice: FIG. 3
Procedure: Absolute changes in food intake were calculated for each animal by subtracting the amount of food remaining in the food hopper at the specified time points from that of the corresponding original pre-weighed aliquot. Absolute changes in body weight were calculated for each animal by subtracting the body weight of the animal prior to dosing from that of the corresponding animal at the specified time points. All values were reported as mean±SEM and peptide treatment groups were analyzed by the two-tailed unpaired Student's t test with reference to vehicle-treated animals. […] (FIG. 3)

[5] = system: mutant form of the human GLP-1R; test: GLP-1R cAMP HTRF assay in transfected CHO cells; assay type: cell-based
[6] = target: T1, recombinant soluble human DP-IV (Homo sapiens, UniProt P27487); test: Resistance to DP-IV cleavage (preincubation with DP-IV, then hGLP-1R cAMP HTRF assay); assay type: in vitro ADME; conditions: FIG. 1
T1 construct: recombinant soluble human DP-IV
Procedure: Activation of hGLP-1R was subsequently measured using the Cis Bio HTRF cAMP assay and compared to control peptides pre-incubated at 37° C. for 2 hours in the absence of DP-IV.

[7] = Hydrolysis sites on incubation in PBS containing 10% mouse or human plasma; assay type: in vitro ADME; conditions: 37° C.
Procedure: A detailed study was undertaken in which OXM139 was incubated in PBS containing 10% of mouse or human plasma at 37° C. Sample preparation was accomplished by mixing 1 μL of test solution and 1 μL of matrix (α-cyano) directly on the sample plate. After crystallization Tof spectrum was collected: Time points at 30, 60, 120 and 720 minutes were analyzed and compared with the same time points of the control test solutions. […] Specifically, Arg 17 was mutated to Glu and Arg 18 was mutated to Ala. The peptide OXM153 is the N-ethyl maleimide analog of OXM151. The peptide OXM154 is the conjugate obtained using a (mPEG)240 kDa from NOF Corporation (SUNBRIGHT GL2-400MA Maleimide).
A similar study of stability was performed on a GcgK series analog OXM144 to determine the primary sites of hydrolysis by incubation with PBS, containing 10% of either mouse or human plasma. […] For this reason, it was decided to introduce mutations at the sites 17 and 18 also in the GcgK analog series.

[8] = system: glucagon-like activity; test: Glucagon-like activity in vitro (FIG. 13)
[9] = target: T2, hGLP-1R (Homo sapiens, UniProt P43220); test: EC50 (hGLP-1R), nM | "-DPP-IV"
Procedure: (§1) Table printed on a drawing sheet, FIG.17
Head of the field: EC50 (hGLP-1R), nM | "-DPP-IV"
(§2) First copying reader's note: The "+DPP-IV" column is the hGLP-1R EC50 measured after incubation with DPP-IV, so stability is shown as a potency shift against the "-DPP-IV" column.
(§3) Where the first naming reader finds the target: head: EC50 (hGLP-1R), nM

[10] = target: T2, hGLP-1R; test: EC50 (hGLP-1R), nM | "+DPP-IV"
Procedure: as §1, §2, §3

[11] = system: mice; test: Gastric emptying in mice; assay type: in vivo, mouse; conditions: maximally efficacious dose for glucose lowering
[12] = system: GLP-1R−/− mice; test: IPGTT with plasma glucose and insulin in GLP-1R-/- mice; assay type: in vivo, mouse
[13] = system: WT mice; test: IPGTT with plasma glucose and insulin in WT mice; assay type: in vivo, mouse; conditions: OXM 0.3 mpk i.p., exendin-4 0.02 mpk i.p.

T1 sequence (P27487 39-766 limits assumed): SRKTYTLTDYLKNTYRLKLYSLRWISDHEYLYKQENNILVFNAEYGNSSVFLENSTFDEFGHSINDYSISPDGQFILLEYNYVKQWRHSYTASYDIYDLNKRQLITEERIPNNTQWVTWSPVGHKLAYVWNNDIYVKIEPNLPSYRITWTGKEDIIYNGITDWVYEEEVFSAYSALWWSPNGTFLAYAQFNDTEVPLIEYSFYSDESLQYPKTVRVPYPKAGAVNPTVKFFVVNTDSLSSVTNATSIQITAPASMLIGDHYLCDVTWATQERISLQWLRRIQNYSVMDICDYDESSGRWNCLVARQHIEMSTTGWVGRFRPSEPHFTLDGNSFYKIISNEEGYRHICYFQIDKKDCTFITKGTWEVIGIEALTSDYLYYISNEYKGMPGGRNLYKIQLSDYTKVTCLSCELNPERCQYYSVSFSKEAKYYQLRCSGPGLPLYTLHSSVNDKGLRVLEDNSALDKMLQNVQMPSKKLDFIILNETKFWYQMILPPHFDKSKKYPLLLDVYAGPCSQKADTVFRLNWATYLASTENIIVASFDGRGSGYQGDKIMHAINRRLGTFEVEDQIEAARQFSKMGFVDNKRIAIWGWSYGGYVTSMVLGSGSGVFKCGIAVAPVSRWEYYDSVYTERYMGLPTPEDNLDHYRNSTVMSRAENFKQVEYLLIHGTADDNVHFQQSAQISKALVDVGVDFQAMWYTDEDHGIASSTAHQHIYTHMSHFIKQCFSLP

Substance: GLP-1: incretin hormone glucagon-like peptide 1, positive control
- GSIS in WT islets ([1]; 10 nM peptide, 16 mmol/l glucose): enhanced GSIS in WT islets with equal efficacy
- potentiation of GSIS in WT islets in the presence of exendin-9 ([1]; 0.5 μM exendin-9): completely blocked
- GSIS in GCG-R−/− islets ([2]; 16 mM glucose): significantly increased GSIS
- fold-increase in fractional GSIS in GCG-R−/− islets ([2]; % insulin released relative to total islet insulin content): 2.5 fold
- potentiation of GSIS in GLP-1R−/− islets [3]: completely unable to enhance GSIS

Substance: HGQGTFTSDYSKYLDSRRAQDFVQWLMNTKRNRNNIAA-COOH (Synthetic peptide based on the human oxyntomodulin sequence) [OXM1]
- overnight body weight gain in mice fed ad libitum [4]: not efficacious

Substance: HGQGTFTSDYSKYLDSRRAQDFVQWLMNTKRNRNNIAC2-COOH (HGQGTFTSDYSKYLDSRRAQDFVQWLMNTKRNRNNIAX; C2 conjugate at C-terminal cysteine; Synthetic peptide based on the human oxyntomodulin sequence) [OXM2]
- potency against GLP-1R in vitro relative to native OXM [5]: significantly less potent than native OXM
- hGLP-1R potency after preincubation of the peptide with DP-IV [6]: loss of potency
- overnight food intake and body weight gain in lean mice [4]: reducing overnight food intake and body weight gain
- overnight body weight gain in mice fed ad libitum [4]: effective in reducing overnight body weight gain

Substance: HGQGTFTSDYSKYLDSRRAQDFVQWLMNTKRNRNNIAC3-COOH (HGQGTFTSDYSKYLDSRRAQDFVQWLMNTKRNRNNIAX; C3 conjugate at C-terminal cysteine; Synthesized oxyntomodulin polypeptide) [OXM3]
- potency against GLP-1R in vitro relative to native OXM [5]: significantly less potent than native OXM
- overnight food intake and body weight gain in lean mice [4]: reducing overnight food intake and body weight gain
- overnight body weight gain in mice fed ad libitum [4]: effective in reducing overnight body weight gain

Substance: HαDGTFTSDYSKYLDSRRAC8DFVQWLmNTK-CONH2 [OXM144]
- primary hydrolysis site [7]: bond between Arg17 and Arg18
- secondary site of hydrolysis [7]: bond between Arg18 and Ala19

Substance: HαDGTFTSDYSKYLDSRRAQDFVQWLmNTKRNRNNIAC3-CONH2 [OXM117, (mPEG)240 kDa conjugate made with MPEG2-MAL-40K (NEKTAR)]
- glucagon-like activity in vitro [8]: no glucagon-like activity

Substance: HαDGTFTSDYSKYLDSRRAQDFVQWLmNTKRNRNNIAC8-CONH2 [OXM139]
- primary hydrolysis site [7]: bond between Arg17 and Arg18
- secondary site of hydrolysis [7]: bond between Arg18 and Ala19

Substance: HαQGTFTSDYSKYLDSRRAQDC4VQWLmNTKRNRNNIA-CONH2 [OXM127]
- EC50 [9]: > 500 nM
- EC50 [10]: > 500 nM

Substance: HαQGTFTSDYSKYLDSRRAQDFVC3WLmNTKRNRNNIA-CONH2 [OXM107]
- EC50 [9]: 29.7 nM
- EC50 [10]: 182 nM

Substance: HαQGTFTSDYSKYLDSRRAQDFVQWLMC3TKRNRNNIA-CONH2 (HXQGTFTSDYSKYLDSRRAQDFVQWLMXTKRNRNNIA; Aib2, C-terminal amide, conjugated Cys; Synthetic peptide based on the human oxyntomodulin sequence) [OXM109]
- EC50 [9]: 7.6 nM
- EC50 [10]: 14.5 nM

Substance: HαQGTFTSDYSKYLDSRRAQDFVQWLMNTK-CONH2 (HXQGTFTSDYSKYLDSRRAQDFVQWLMNTK; Aib2, C-terminal amide; Synthetic peptide based on the human oxyntomodulin sequence) [OXM130]
- EC50 [9]: 5.8 nM
- EC50 [10]: 8.7 nM

Substance: HαQGTFTSDYSKYLDSRRAQDFVQWLmNTKRNRNNIAC3-CONH2 [OXM99]
- EC50 [9]: 7.5 nM
- EC50 [10]: 27.5 nM

Substance: HαQGTFTSDYSKYLDSRRAQDFVQWLmNTKRNRNNIAC6-CONH2 [OXM100]
- EC50 [9]: 22.5 nM
- EC50 [10]: 184 nM

Substance: exendin-4: GLP-1 mimetic, GLP-1 receptor agonist used as comparator
- reduction of gastric emptying [11]: 47%
- basal insulin levels [12]: did not affect basal insulin levels
- insulin response to i.p. glucose challenge [12]: nor did it improve the insulin response
- glucose excursion in IPGTT ([12]; same doses): did not affect glucose excursion
- reduction of glucose AUC relative to the vehicle group [13]: > 60%
